# In article PMC10809383, “Synthesis and migrastatic activity of cytochalasin analogues lacking a macrocyclic moiety” (RSC Medicinal Chemistry, 2023):
# Entries after “also recorded” stand apart in the source; their conditions may differ.
# Columns and labels:
# [1] = system: human fibroblasts (MRC-5); assay: WST-1 viability assay, MRC-5 cells; format: cell-based; conditions: MRC5, 72 h treatment, WST-1 assay, 2D culture, 0–50 μM
# Description: (§1) In addition, the cytotoxic activity of compounds 17, 20, and 22–30 was assessed by the WST-1 viability assay using BLM (human melanoma) and MRC-5 (noncancerous human fibroblasts) cells growing in a monolayer (2D cultures, Table 2) after 72 h of treatment.
# (§2) Human cells from melanoma (BLM) and human lung fibroblasts (MRC-5, Merck, USA) were used to evaluate in vitro cytotoxicity of the prepared compounds. The cells were maintained at the exponential phase of growth (passaging done by trypsin–EDTA solution) in DMEM and MEM, for BLM and MRC-5, respectively, with stable L-glutamine and supplemented with 10% fetal bovine serum (Thermo Fisher Scientific, USA). The cells were kept in an incubator at 37 °C, 5% CO2 in the atmosphere, and 95% humidity.
# (§3) The compound cytotoxicity was determined by a WST-1 viability assay (Merck, USA). The amount of 5000 BLM and MRC-5 cells were seeded into individual wells of 96-well plates in 100 μL of cell cultivation media and maintained in an incubator for 16 h. After this period, the cells were treated with a concentration series (0–50 μM) of the tested compounds diluted in another 100 μL of cultivation media, which was added to the wells containing cells and incubated for 72 h. Then, BLM and MRC-5 cell viability was evaluated by WST-1 agent (5% v/v solution in phenol red-free DMEM media), i.e., the cell media was discarded and 100 μL of WST-1 solution was added. After 2 h incubation, the absorbance of formazan, derived from the WST-1 tetrazolium salt was determined spectrophotometrically at 450 nm (reference at 650 nm) by a UV-vis spectrophotometer (Bio-Rad, USA). Untreated cells, cells treated only with a vehicle, and cells treated with cytochalasin B (1) and D (2) served as controls. The measurement occurred in three independent repetitions each of which consisted of three technical replicates. The data were plotted as dose–response curves from which the half-maximal inhibitory concentrations (IC50) were calculated using AAT Bioquest.
# [2] = system: HT1080 fibrosarcoma cells; assay: Fluorescence microscopy of actin cytoskeleton (SPY650-FastAct time-lapse); format: cell-based; conditions: 10 μM, within 2 min of addition
# Description: Next, we conducted experiments to assess the impact of compound 24, CytB (1) and CytD (2) on the actin cytoskeleton using fluorescence microscopy in HT1080 fibrosarcoma cells (Fig. 3). […] Therefore, we increased the concentration up to 50 μM.
# HT1080 cells were seeded into 12-well glass bottom plate and stained with SPY650-FastAct™ following manufacturer's protocol. Untreated cells (control) were imaged every 20 s for 15 min using Leica TCS SP2 microscope (40×/0.6 dry objective). Afterwards, an inhibitor (compound 24 at 10 μM; 50 μM or compound 1 and 2 at 10 μM) was added into the same well and its effect was recorded for 15 min (20 s/image). All video recordings were analyzed using FiJi (Rasband, W.S., ImageJ, NIH, Bethesda, MD, USA).
# [3] = system: human melanoma cell line BLM; assay: Spheroid invasion assay (migrastatic activity); format: cell-based; conditions: 24 h; for rel. spheroid area: 10 µM, BLM spheroids in collagen, DMSO control 1.02; for migrastatic activity (cell migration, in words): 10 μM, BLM spheroid invasion
# Description: Compounds 17, 20, and 22–30 were screened for their migrastatic activity using a spheroid invasion assay with the human melanoma cell line BLM.[46] Spheroids were formed and subsequently treated with cytochalasin analogues at a concentration of 10 μM for 24 h. CytB (1) and CytD (2) served as reference compounds for comparison. There was no significant increase in cell migration observed for any of the compounds tested. […] However, the effect was less profound than that of the reference compounds 1 and 2.
# The spheroid invasion assay was performed following a previously published protocol.[63] Briefly, BLM cells were grown as spheroids using 3D Petri Dish (Microtissues). After 2 days of spheroid formation, 1.5 mg mL^−1 collagen solution (rat tail, collagen type I) was prepared (1.5 mg mL^−1 rat-tail collagen, 1× DMEM, 1% (v/v) FBS) and added at the bottom of a 96-well plate. Spheroids were embedded into the collagen (one spheroid per well) and covered with another layer of the gel. Collagen was polymerized at 37 °C and subsequently overlaid with a cultivation medium. Images of spheroids were taken with Leica TCS SP2 microscope (5×/0.15 dry objective; LAS X Life Science Microscope software) immediately after their seeding into collagen and again after 24 h. The area of the spheroids at 0 and 24 h was measured using FiJi (Rasband, W.S., ImageJ, NIH, Bethesda, MD, USA). Cellular invasiveness was determined as an increase in spheroid area within 24 h. Three independent experiments were conducted with at least 8 spheroids analysed in each experiment. Statistical analysis was performed in GraphPad using one-way ANOVA. For numeric data and representative images from this assay, see ESI, ^† Table S1 and Fig. S1.
# Table S1: Spheroid invasion assay with BLM cell line at 10 µM concentration, 24 h.
# Figure S1: Representative images of BLM cell spheroid invasion assay with or without
# inhibitor. Images were taken at 0 h and 24 h. using a Leica TCS SP2 microscope (5x/0.15
# dry objective). DMSO (first column) was used as a control. Scale bar 500 µm.
# [4] = system: human melanoma cells (BLM); assay: WST-1 viability assay, BLM cells; format: cell-based; conditions: for IC50: Homo sapiens, 72 h treatment, WST-1 assay, 2D culture, 0–50 μM; for selectivity index (SI): MRC-5 versus BLM, 72 h, WST-1
# Description: as §1, §2, §3
# actin = target: T1, actin (Oryctolagus cuniculus, UniProt P68135); assay: Actin polymerization assay (pyrene-actin, Actin Polymerization Biochem Kit); format: biochemical; conditions: 10 μM, in vitro
# T1 construct: purchased Cytoskeleton, Inc, Denver, CO
# Description: To further ascertain the compounds' interference with actin polymerization, the active compounds, along with CytB (1) as a positive control and compound 26 as a negative control, were subjected to an in vitro actin polymerization assay (Fig. 2B). […] This correlation between actin inhibitory activity and migrastatic effect underscores the pivotal role of actin polymerization inhibition in mediating the observed migrastatic activity.
# Actin polymerization assay was performed using Actin Polymerization Biochem Kit™ (Cytoskeleton, Inc, Denver, CO) according to the manufacturer protocol. Briefly, 25 μL of G-buffer containing labelled pyrene-actin (0.4 mg mL^−1) and 2.48 μL of either DMSO (10 μM, control) or inhibitor (10 μM) was added in […] well plate. Actin polymerization was initiated by the addition of 2.48 μL of 10× actin polymerization buffer and analysed in time until fluorescent signal plateau was reached using a spectrophotometer (Infinite 200 PRO, Tecan Life Sciences, Tecan Group Ltd., Zürich, CHE). The fluorescence emission intensity of actin polymerization was measured at 420 nm and 360 nm was used as excitation wavelength. Statistical analysis was performed in GraphPad using one-way ANOVA. Measurements were performed in three independent repetitions each consisting of at least three technical replicates. For a representative graph from this assay, see ESI, ^† Fig. S2.
Compound,IC50 [1] [µM],effect on the actin cytoskeleton [2],rel. spheroid area [3],IC50 [4] [µM],selectivity index (SI) [4],"migrastatic activity (cell migration, in words) [3]",inhibition of actin polymerization (in words) (actin)
"C=C1[C@@H](C)[C@H]2[C@H](Cc3ccccc3)NC(=O)[C@]23OC(=O)/C=C/[C@H](O)CCC[C@@H](C)C/C=C/[C@H]3[C@@H]1O [CytB (1), cytochalasin B, reference compound]",0.27 ± 0.01,profound effect on the actin cytoskeleton,0.26,26.2 ± 0.55,0.01,,
"COC(=O)[C@@]12C(=O)N[C@@H](Cc3ccccc3)[C@@H]1[C@H](C)[C@@](C)(Cl)[C@H](O)[C@@H]2CCOCCc1ccccc1 [Compound 26, Methyl (1S,3aS,4R,5R,6R,7S,7aR)-1-benzyl-6-chloro-5-hydroxy-6,7-dimethyl-3-oxo-4-(2-phenethoxyethyl)octahydro-3aH-isoindole-3a-carboxylate]",> 50,,0.88,> 50,,,
"C=C1[C@@H](C)[C@H]2[C@H](Cc3ccccc3)NC(=O)[C@@]2(C(=O)OC)[C@@H](CCOCCc2ccccc2)[C@@H]1OC(C)=O [Compound 27, Methyl (1S,3aS,4R,5S,7S,7aR)-5-acetoxy-1-benzyl-7-methyl-6-methylene-3-oxo-4-(2-phenethoxyethyl)octahydro-3aH-isoindole-3a-carboxylate]",> 50,,0.89,> 50,,inactive,
"COC(=O)[C@@]12C(=O)N[C@@H](Cc3ccccc3)[C@@H]1[C@H](C)C(C)=C[C@@H]2CCOCCc1ccc(Cl)cc1 [Compound 17g, Methyl (1S,3aR,4S,7S,7aR)-1-benzyl-4-(2-(4-chlorophenethoxy)ethyl)-6,7-dimethyl-3-oxo-1,2,3,4,7,7a-hexahydro-3aH-isoindole-3a-carboxylate]",22.2 ± 12.2,,1.17,19.5 ± 1.23,1.1,,
"C=C1[C@@H](C)[C@H]2[C@H](Cc3ccccc3)NC(=O)[C@]23[C@H](OC(C)=O)/C=C/[C@@](C)(O)C(=O)[C@@H](C)C/C=C/[C@H]3[C@@H]1O [CytD (2), cytochalasin D, reference compound]",2.36 ± 0.07,profound effect on the actin cytoskeleton,0.23,13.7 ± 1.2,0.17,,
"CC1=C[C@H](CCOCCc2ccccc2)[C@]2(C(=O)O)C(=O)N[C@@H](Cc3ccccc3)[C@@H]2[C@@H]1C [Compound 29, (1S,3aR,4S,7S,7aR)-1-Benzyl-6,7-dimethyl-3-oxo-4-(2-phenethoxyethyl)-1,2,3,4,7,7a-hexahydro-3aH-isoindole-3a-carboxylic acid]",> 50,,1.05,> 50,,,
"COC(=O)[C@@]12C(=O)N[C@@H](Cc3ccccc3)[C@@H]1[C@H](C)C(C)=C[C@@H]2CCCOCc1ccccc1 [Compound 20, Methyl (1S,3aR,4S,7S,7aR)-1-benzyl-4-(3-(benzyloxy)propyl)-6,7-dimethyl-3-oxo-1,2,3,4,7,7a-hexahydro-3aH-isoindole-3a-carboxylate]",28.6 ± 1.86,,0.56,28.4 ± 0.59,1.0,significant decrease in cell migration; also recorded: modest migrastatic activity,inhibit actin polymerization
"CC1=C[C@H](CCOCCc2ccccc2)[C@]2(CO)C(=O)N[C@@H](Cc3ccccc3)[C@@H]2[C@@H]1C [Compound 30, (3S,3aR,4S,7S,7aS)-3-Benzyl-7a-(hydroxymethyl)-4,5-dimethyl-7-(2-phenethoxyethyl)-2,3,3a,4,7,7a-hexahydro-1H-isoindol-1-one]",> 50,,0.50,> 50,,significant decrease in cell migration; also recorded: modest migrastatic activity,inhibit actin polymerization
"COC(=O)[C@@]12C(=O)N[C@@H](Cc3ccccc3)[C@@H]1[C@H](C)C(C)=C[C@@H]2CCOCCc1cccc(Br)c1 [Compound 17i, Methyl (1S,3aR,4S,7S,7aR)-1-benzyl-4-(2-(3-bromophenethoxy)ethyl)-6,7-dimethyl-3-oxo-1,2,3,4,7,7a-hexahydro-3aH-isoindole-3a-carboxylate]",31.2 ± 6.95,,1.14,24.3 ± 1.82,1.3,,
"COC(=O)[C@@]12C(=O)N[C@@H](Cc3ccccc3)[C@@H]1[C@H](C)C(C)=C[C@@H]2CCOCCc1ccc(OC)cc1 [Compound 17b, Methyl (1S,3aR,4S,7S,7aR)-1-benzyl-4-(2-(4-methoxyphenethoxy)ethyl)-6,7-dimethyl-3-oxo-1,2,3,4,7,7a-hexahydro-3aH-isoindole-3a-carboxylate]",40.5 ± 4.65,,1.14,35.3 ± 4.75,1.1,,
